{"source": "paper PMC11073699", "about": "“Odorant receptors for floral- and plant-derived volatiles in the yellow fever mosquito, Aedes aegypti (Diptera: Culicidae)” (PLOS ONE, 2024)", "key": {"AaegOR13": {"molecular_target": "T1, AaegOR13 (Aedes aegypti, UniProt Q16Z13)", "T1 sequence (Q16Z13 1-389)": "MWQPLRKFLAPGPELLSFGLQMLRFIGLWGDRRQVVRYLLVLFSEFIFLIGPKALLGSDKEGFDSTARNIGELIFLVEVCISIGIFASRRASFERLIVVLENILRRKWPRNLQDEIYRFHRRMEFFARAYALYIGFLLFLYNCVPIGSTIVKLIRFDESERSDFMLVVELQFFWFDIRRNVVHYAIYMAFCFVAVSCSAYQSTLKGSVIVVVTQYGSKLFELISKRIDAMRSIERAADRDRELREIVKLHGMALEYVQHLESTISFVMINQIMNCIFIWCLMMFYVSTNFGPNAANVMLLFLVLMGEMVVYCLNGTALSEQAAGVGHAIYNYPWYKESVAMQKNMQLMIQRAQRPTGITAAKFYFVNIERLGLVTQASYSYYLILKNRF", "T1 sequence (Q178U6 1-478 partner)": "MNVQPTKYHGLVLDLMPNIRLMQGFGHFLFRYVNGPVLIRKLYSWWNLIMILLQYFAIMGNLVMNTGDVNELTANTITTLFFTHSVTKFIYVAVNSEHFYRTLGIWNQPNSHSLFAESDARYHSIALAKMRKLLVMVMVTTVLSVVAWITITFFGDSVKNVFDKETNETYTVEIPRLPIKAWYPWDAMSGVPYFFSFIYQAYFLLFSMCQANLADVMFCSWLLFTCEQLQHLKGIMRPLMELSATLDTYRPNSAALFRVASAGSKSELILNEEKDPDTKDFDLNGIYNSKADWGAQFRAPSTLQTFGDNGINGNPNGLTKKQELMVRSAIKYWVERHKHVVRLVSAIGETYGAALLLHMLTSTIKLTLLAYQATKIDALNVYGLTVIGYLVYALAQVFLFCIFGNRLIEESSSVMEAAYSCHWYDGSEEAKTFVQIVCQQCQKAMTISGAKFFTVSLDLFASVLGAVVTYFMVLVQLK", "assay": "Two-electrode voltage clamp of Xenopus laevis oocytes expressing AaegOR13/Orco (blends, unitary compounds, concentration-response)", "type": "cell-based", "conditions": "unitary compounds; for Raw data (Responses in nA), unitary compounds of Indoles 1, Alcohols 1, Alcohols 3 / Normalized response, unitary compounds of Indoles 1, Alcohols 1, Alcohols 3: individual oocytes 1-7; for Normalized response, unitary compounds, Average: average of oocytes 1-7; for Normalized response, unitary compounds of Indoles 1, Alcohols 1, Alcohols 3: normalized per oocyte", "description": "(§1) The coding regions of ten AaegOR genes of interest (S3 File) and AaegOrco were synthesized by Twist Bioscience (San Francisco, CA, USA) and cloned into the pENTR plasmid. The Gateway LR directional cloning system (Invitrogen Corp., Carlsbad, CA, USA) was utilized to subclone AaegOR coding regions into the pSP64t-RFA oocyte expression plasmid. Plasmids were purified using the GeneJet Plasmid Miniprep Kit (ThermoFisher Scientific, Waltham, MA, USA). Purified plasmids were sequenced in both directions to confirm coding regions.\n(§2) Chemical compounds (S6 File) used in the deorphanization of AaegORs were purchased from Acros Organics (Morris, NJ, USA), Alfa Aesar (Ward Hill, MA, USA), and ThermoFisher Scientific (Waltham, MA, USA) at the highest purity available. Compounds were stored as 1M stocks in 100% DMSO. Serial dilutions of each compound were prepared in 10% DMSO and blended by chemical class.\n(§3) pSP64t-RFA: AaegOR clones were linearized using Xbal, and cRNAs were synthesized using the mMESSAGE mMACHINE ® SP6 kit (Life Technologies, Carlsbad, CA, USA). Xenopus laevis stage V-VII oocytes purchased from Xenopus1 (Dexter, MI, USA) were stored at 18°C in Incubation medium (ND96 96 with 5% dialyzed horse serum, 50μg/mL gentamycin, 100μg/mL streptomycin, 100μg/mL penicillin, and 550μg/mL sodium pyruvate). 30nL of cRNA was injected into multiple oocytes using a microinjection syringe pump (World Precision Instruments, Sarasota, FL, USA) maintained at 18°C for 48–72 hrs. Odorant blends were perfused across individual oocytes for 10–15 seconds, held at a resting membrane potential of -80 mV using an OC-725C oocyte clamp (Warner Instruments, LLC, Hamden, CT, USA). Induced currents were measured indirectly using the two-electrode voltage clamp technique (TEVC). Following each stimulus, currents were allowed to return to baseline before further stimulation. Data was captured using the Digidata 1550 B digitizer and PClamp10 software (Molecular Devices, San Jose, CA, USA). Concentration-response curves were generated by perfusing unitary odorants over oocytes at increasing concentrations from [10^-3M] to [10^-9M]. Data were analyzed using GraphPad Prism 8 (GraphPad Software Inc., La Jolla, CA, USA). At least two biological replicates were conducted at each concentration and for each compound. Data for at least seven oocytes responding to each compound was analyzed (S7 File)."}, "AaegOR31": {"molecular_target": "T2, AaegOR31 (Aedes aegypti, UniProt Q16JU0)", "T2 sequence (Q16JU0 1-381)": "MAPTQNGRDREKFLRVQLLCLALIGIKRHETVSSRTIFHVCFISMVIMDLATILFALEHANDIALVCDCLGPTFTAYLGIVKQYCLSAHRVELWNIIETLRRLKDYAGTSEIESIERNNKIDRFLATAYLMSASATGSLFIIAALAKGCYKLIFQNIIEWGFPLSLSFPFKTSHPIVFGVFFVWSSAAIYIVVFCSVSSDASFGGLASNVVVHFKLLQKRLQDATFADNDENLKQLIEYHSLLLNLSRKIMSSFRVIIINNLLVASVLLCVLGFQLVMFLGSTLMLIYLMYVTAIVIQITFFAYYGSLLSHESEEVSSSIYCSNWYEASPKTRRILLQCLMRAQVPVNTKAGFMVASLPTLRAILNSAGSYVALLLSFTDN", "T2 sequence (Q178U6 1-478 partner)": "T1 sequence (Q178U6 1-478 partner)", "assay": "Two-electrode voltage clamp of Xenopus laevis oocytes expressing AaegOR31/Orco (blends, unitary compounds, concentration-response)", "type": "cell-based", "conditions": "for Raw Data (Responses in nA), Alcohols 1 unitary compounds / Raw Data (Responses in nA), concentration-response / Normalized response, Average, Alcohols 1 unitary compounds / Normalized response, Alcohols 1 unitary compounds: AaegOR31; for Raw Data (Responses in nA), Alcohols 1 unitary compounds / Normalized response, Average, Alcohols 1 unitary compounds / Normalized response, Alcohols 1 unitary compounds: compounds of blend Alcohols 1; for Raw Data (Responses in nA), Alcohols 1 unitary compounds / Normalized response, Alcohols 1 unitary compounds: individual oocytes (Oocyte 1-8); for Raw Data (Responses in nA), concentration-response: individual oocytes (Oocyte 1-10); for Normalized response, Average, Alcohols 1 unitary compounds: average of 8 oocytes; for Normalized response, Alcohols 1 unitary compounds: normalized to the strongest compound per oocyte", "description": "as §1, §2, §3"}}, "note": "Values joined by “and” are separate entries in the source; they are usually repeats but may differ in a detail not shown here. Equal values may be shown once.", "data": [{"smiles": "CC(C)=CCC/C(C)=C/CC/C(C)=C/CO", "note": "[farnesol]", "values": [{"measurement": "Raw data (Responses in nA), unitary compounds of Indoles 1, Alcohols 1, Alcohols 3", "setting": "AaegOR13", "value": 0.0, "unit": "nA"}, {"measurement": "EC50", "setting": "AaegOR31; AaegOR31/Orco expressing oocytes, TEVC, concentration-response of normalized current", "value": 14.3, "unit": "µM"}, {"measurement": "Raw Data (Responses in nA), Alcohols 1 unitary compounds", "setting": "AaegOR31", "value": "170.0 nA and 40.0 nA and 50.0 nA and 120.0 nA and 340.0 nA and 75.0 nA and 80.0 nA and 270.0 nA"}, {"measurement": "Raw Data (Responses in nA), concentration-response", "setting": "AaegOR31; concentration 1e-7 M", "value": "0.0 nA (4×) and 20.0 nA and 30.0 nA (2×) and 10.0 nA (2×) and 5.0 nA"}, {"measurement": "Raw Data (Responses in nA), concentration-response", "setting": "AaegOR31; concentration 5e-7 M", "value": "5.0 nA (3×) and 10.0 nA (4×) and 20.0 nA and 0.0 nA and 15.0 nA"}, {"measurement": "Raw Data (Responses in nA), concentration-response", "setting": "AaegOR31; concentration 1e-6 M", "value": "20.0 nA (6×) and 0.0 nA (2×) and 10.0 nA (2×)"}, {"measurement": "Raw Data (Responses in nA), concentration-response", "setting": "AaegOR31; concentration 5e-6 M", "value": "90.0 nA (2×) and 80.0 nA and 30.0 nA and 50.0 nA (2×) and 20.0 nA (2×) and 40.0 nA and 100.0 nA"}, {"measurement": "Raw Data (Responses in nA), concentration-response", "setting": "AaegOR31; concentration 1e-5 M", "value": "130.0 nA (2×) and 120.0 nA (2×) and 55.0 nA and 90.0 nA and 160.0 nA and 45.0 nA and 50.0 nA and 170.0 nA"}, {"measurement": "Raw Data (Responses in nA), concentration-response", "setting": "AaegOR31; concentration 5e-5 M", "value": "190.0 nA and 320.0 nA and 270.0 nA and 130.0 nA and 260.0 nA and 430.0 nA and 150.0 nA and 100.0 nA and 290.0 nA and 360.0 nA"}, {"measurement": "Raw Data (Responses in nA), concentration-response", "setting": "AaegOR31; concentration 0.0001 M", "value": "160.0 nA and 440.0 nA and 280.0 nA and 210.0 nA and 270.0 nA and 400.0 nA and 170.0 nA and 80.0 nA and 320.0 nA and 430.0 nA"}]}, {"smiles": "OCC(O)CO", "note": "[glycerol]", "values": [{"measurement": "Raw data (Responses in nA), unitary compounds of Indoles 1, Alcohols 1, Alcohols 3", "setting": "AaegOR13", "value": 0.0, "unit": "nA"}, {"measurement": "Raw Data (Responses in nA), Alcohols 1 unitary compounds", "setting": "AaegOR31", "value": "5.0 nA (2×) and 0.0 nA (6×)"}]}, {"smiles": "Cc1cccc(O)c1", "note": "[m-cresol]", "values": [{"measurement": "Raw data (Responses in nA), unitary compounds of Indoles 1, Alcohols 1, Alcohols 3", "setting": "AaegOR13", "value": "0.0 nA and 75.0 nA and 25.0 nA (2×) and 40.0 nA (2×) and 45.0 nA"}, {"measurement": "Raw Data (Responses in nA), Alcohols 1 unitary compounds", "setting": "AaegOR31", "value": "15.0 nA and 0.0 nA (7×)"}]}, {"smiles": "CO", "note": "[methanol]", "values": [{"measurement": "Normalized response, unitary compounds, Average", "setting": "AaegOR13", "value": 0.0}, {"measurement": "Raw data (Responses in nA), unitary compounds of Indoles 1, Alcohols 1, Alcohols 3", "setting": "AaegOR13", "value": 0.0, "unit": "nA"}, {"measurement": "Normalized response, unitary compounds of Indoles 1, Alcohols 1, Alcohols 3", "setting": "AaegOR13", "value": 0.0}, {"measurement": "Normalized response, Average, Alcohols 1 unitary compounds", "setting": "AaegOR31", "value": 0.0}, {"measurement": "Raw Data (Responses in nA), Alcohols 1 unitary compounds", "setting": "AaegOR31", "value": 0.0, "unit": "nA"}, {"measurement": "Normalized response, Alcohols 1 unitary compounds", "setting": "AaegOR31", "value": 0.0}]}, {"smiles": "CCCCO", "note": "[n-butanol]", "values": [{"measurement": "Normalized response, unitary compounds, Average", "setting": "AaegOR13", "value": 0.0}, {"measurement": "Raw data (Responses in nA), unitary compounds of Indoles 1, Alcohols 1, Alcohols 3", "setting": "AaegOR13", "value": 0.0, "unit": "nA"}, {"measurement": "Normalized response, unitary compounds of Indoles 1, Alcohols 1, Alcohols 3", "setting": "AaegOR13", "value": 0.0}, {"measurement": "Normalized response, Average, Alcohols 1 unitary compounds", "setting": "AaegOR31", "value": 0.0}, {"measurement": "Raw Data (Responses in nA), Alcohols 1 unitary compounds", "setting": "AaegOR31", "value": 0.0, "unit": "nA"}, {"measurement": "Normalized response, Alcohols 1 unitary compounds", "setting": "AaegOR31", "value": 0.0}]}, {"smiles": "Cc1ccccc1O", "note": "[o-cresol]", "values": [{"measurement": "Raw data (Responses in nA), unitary compounds of Indoles 1, Alcohols 1, Alcohols 3", "setting": "AaegOR13", "value": "0.0 nA and 110.0 nA and 25.0 nA and 35.0 nA and 50.0 nA and 45.0 nA and 15.0 nA"}, {"measurement": "Raw Data (Responses in nA), Alcohols 1 unitary compounds", "setting": "AaegOR31", "value": 0.0, "unit": "nA"}]}, {"smiles": "Cc1ccc(O)cc1", "note": "[p-cresol]", "values": [{"measurement": "Raw data (Responses in nA), unitary compounds of Indoles 1, Alcohols 1, Alcohols 3", "setting": "AaegOR13", "value": "20.0 nA and 290.0 nA and 85.0 nA and 140.0 nA and 165.0 nA and 135.0 nA and 90.0 nA"}, {"measurement": "Raw Data (Responses in nA), Alcohols 1 unitary compounds", "setting": "AaegOR31", "value": 0.0, "unit": "nA"}]}]}
